Results published in patent US20110165173A1, “THERAPEUTIC AGENT AND DETECTION REAGENT FOR ARTERIOSCLEROTIC DISEASE WHICH TARGETS FOR SALUSIN” (PROTEINEXPRESS CO., LTD., priority 2007, published 2011).

Legend:
CD36 = CD36 expression by macrophages of treated apoE-deficient mice (Western blotting); type: in vivo; details: four weeks
Protocol: (§1) 13-week-old male apoE-deficient mice (72 mice) were divided into the following 6 groups: (i) physiological salt saline (control); (ii) salusin-α (0.6 nmol/kg/h); (iii) salusin-β (0.6 nmol/kg/h); (iv) salusin-α (0.6 nmol/kg/h)+anti-salusin-α serum (1.4 μg/kg/h); (v) salusin-β (0.6 nmol/kg/h)+anti-salusin-β serum (1.4 μg/kg/h); and (vi) anti-salusin-β serum (1.4 μg/kg/h). The mice were subjected to continuous subcutaneous administration with the use of an osmotic mini-pump for 4 to 8 weeks. The osmotic mini-pump and the solution contained therein were changed every week.
(§2) Macrophages were collected as in the experiment in (1), and the protein expression of the gene involved in foaming of macrophages (i.e., scavenger receptors CD36 and SR-A capable of recognizing oxidized LDL, intracellular cholesterol esterification enzyme ACAT1, and ABCA1, ABCG1, and SR-BI, which are involved in cholesterol efflux) was analyzed by Western blotting. For the internal standard of the macrophage function, β-actin expression was also examined. For quantification of the band concentration, Analyzer (ATTO Corporation, Tokyo) was used.

[1] = system: ACAT-1 protein expression; experiment: ACAT-1 protein expression in human monocyte-derived macrophages during differentiation (Western blotting); type: cell-based; details: for ACAT-1 protein expression vs control cells: 0.6 nM
Protocol: In the Examples below, monocytes were prepared from human peripheral blood and cultured for 7 days so as to have differentiated into macrophages. At such time, salusin-α (0 to 10 nM) and salusin-β (0 to 10 nM) were simultaneously added thereto, and the effects of salusin were examined.
Culture of monocytes obtained from human peripheral blood was performed by a known method. Isolated monocytes were cultured with the addition of RPMI-1640 (15 mL) and then the floating monocytes were subjected to cell counting with a blood cell counting chamber. The cells were seeded on a 6-cm dish so as to result in 4×10^6 cells/2 mL. The monocytes were kept warm at 37° C. in the presence of 5% CO2 for 1 hour such that the cells were allowed to adhere to the dish. The medium was substituted with RPMI-1640 containing 10% human serum, followed by culture for 7 days. The medium was changed every 3 days.
ACAT-1 is an endoplasmic reticulum enzyme that converts intracellular free cholesterol into cholesterol ester. The ACAT-1 gene is important for foaming of macrophages. In order to examine effects of salusin-α and salusin-β on the ACAT-1 expression, the ACAT-1 protein expression was examined by Western blotting.
Monocyte-derived macrophages that had been cultured for 7 days were washed with PBS 3 times, followed by solubilization with the addition of 10% SDS (sodium dodecyl sulfate) (100 μL) to each dish. Each cell extraction solution was scooped up with a cell scraper, followed by pulverization with the use of a 1-mL TERUMO syringe and a 23-G injection needle for fragmentation (shearing). The resultant was centrifuged at 15,000 rpm for 3 minutes (Himac CF15D2 high-speed micro refrigerated centrifuge; Hitach, Ltd.). The supernatant protein concentration was assayed by the bicinchoninic acid (BCA) method (Pierce) and used as a cell extraction solution for Western blotting.
For ACAT-1 protein detection, an anti-human ACAT-1 polyclonal antibody (DM10 donated from Dr. Chang, Dartmouth Medical School) [Chang CCY et al., J Biol Chem. 1995; 270: 29532-29540] prepared by immunizing a rabbit was used as a primary antibody (final concentration: 0.5 μg/mL) for a reaction on a transfer membrane at room temperature for 1 hour. The transfer membrane was washed with PBS-0.1% Tween 20, followed by a reaction with a secondary antibody (anti-rabbit IgG antibody: anti-rabbit IgG donkey antibody conjugated with horseradish peroxidase (HRP) (GE Healthcare Bio-Science)) at room temperature for 1 hour. For a secondary antibody, a stock solution (0.5 μL) was diluted 10,000-fold with PBS-0.1% Tween 20 (5 mL), and the resultant was used. Washing was carried out with PBS-0.1% Tween 20, followed by ACAT-1 protein detection with the use of Lumi-Light Plus (PerkinElmer Life Sciences).
Human peripheral blood monocytes (4×10^6 cells/6-cm dish) were cultured for 7 days in an RPMI-1640 medium (2 mL) containing 10% human serum so as to differentiate into macrophages. In order to examine the salusin dose-dependent effects on the ACAT-1 protein expression, salusin-α or salusin-β was added to the medium at a concentration of 0, 0.2, 0.4, 0.6, 0.8, or 1.0 nM at the beginning of culture. On Day 7 of culture, macrophage cells differentiated from monocytes were washed with PBS and then solubilized in 10% SDS (100 μL), followed by Western blotting with the use of an ACAT-1-specific antibody. […]

SR-A = SR-A expression by macrophages of treated apoE-deficient mice (Western blotting); type: in vivo; details: four weeks
Protocol: as §1, §2

ACAT1 = ACAT1 expression by macrophages of treated apoE-deficient mice (Western blotting); type: in vivo; details: four weeks, P<0.05
Protocol: as §1, §2

[2] = 0.6 nmol/kg/h, range given jointly for CD36, SR-A, ACAT1, P<0.05

Substance	CD36 protein expression (CD36; salusin-α 0.6 nmol/kg/h)	inhibition of ACAT-1 protein expression ([1]; 0 to 1.0 nM added at beginning of 7-day culture, concentration-dependent)	ACAT-1 protein expression vs control cells ([1]; Day 1, 3, or 5 after seeding)	ACAT-1 protein expression vs control cells ([1]; Day 7)	SR-A protein expression (SR-A; salusin-α 0.6 nmol/kg/h)	ACAT1 protein expression relative to initial level (ACAT1; salusin-α 0.6 nmol/kg/h)	CD36 protein expression relative to control level (CD36; [2]) [times]	ACAT-1 protein expression level relative to control ([1]; 0.6 nM (peak level), added at beginning of 7-day culture, attenuated above 0.6 nM) [times]	ACAT-1 protein expression vs control cells ([1]; Day 5 or later)	SR-A protein expression relative to control level (SR-A; [2]) [times]	ACAT1 protein expression relative to control level (ACAT1; 0.6 nmol/kg/h, range given jointly for CD36, SR-A, ACAT1) [times]
salusin-α: peptide (SEQ ID NO: 1) comprising 28 amino acid residues, generated by processing from preprosalusin (SGALPPAPAAPRPALRAQRAGPAGPGAK; listed as Homo sapiens)	did not influence	approximately 40%	not found to significantly differ	significantly inhibited	did not influence	approximately half	–	–	–	–	–
salusin-β: peptide (SEQ ID NO: 3) comprising 20 amino acid residues, generated by processing from preprosalusin (AIFIFIRWLLKLGHHGRAPP; listed as Homo sapiens) [reference compound]	–	–	–	–	–	–	1.5 to 2.8	2.1	significantly increased	1.5 to 2.8	1.5 to 2.8
